Counter-ions that a name gives are not always drawn.
These compounds were tested against T1, recombinant human ALX receptor (Homo sapiens, UniProt P25090) (assay: Intracellular calcium measurements (FLIPR), ALX receptor agonistic activity). Details: HEK293-hALXR-Gα16 cells, Fluo-4 calcium signal, normalized to WKYMVm 10 nM.
T1 construct: expressed in transfected cells; host or cells: HEK293 (HEK293-hALXR-Gα16)
T1 sequence (P25090 1-351): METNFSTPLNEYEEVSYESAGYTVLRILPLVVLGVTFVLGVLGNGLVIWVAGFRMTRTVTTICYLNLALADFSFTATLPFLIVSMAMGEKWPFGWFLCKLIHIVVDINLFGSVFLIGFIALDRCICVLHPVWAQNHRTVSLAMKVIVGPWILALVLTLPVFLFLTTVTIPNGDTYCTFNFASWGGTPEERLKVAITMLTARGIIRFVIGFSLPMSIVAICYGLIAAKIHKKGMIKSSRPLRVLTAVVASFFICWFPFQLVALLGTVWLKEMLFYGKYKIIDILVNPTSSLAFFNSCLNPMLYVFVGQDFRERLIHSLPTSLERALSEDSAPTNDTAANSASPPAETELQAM
Assay type: cell-based
Method in brief: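 HEK293 cells co-expressing human ALX receptor and Gα16 were loaded with 1 μM Fluo-4 AM for 60 min at 37° C., then exposed to serially diluted compounds on FLIPR Tetra. Peak fluorescence above baseline (ex 488/em 540 nm) was normalized to 10 nM WKYMVm as high control.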

Row | Structure (SMILES) | EC50
1 | COc1ccc(C[C@@H](NC(=O)N[C@H]2CCc3ccccc32)c2nc3ccccc3[nH]2)cc1 [Example 20, 1-((R)-1-(1H-Benzo[d]imidazol-2-yl)-2-(4-methoxyphenyl)ethyl)-3-((S)-2,3-dihydro-1H-inden-1-yl)urea] | 712 nM
2 | COc1ccc(C[C@@H](NC(=O)N[C@@H]2CCC[C@@H]2O)c2nc3ccccc3[nH]2)cc1 [Example 21, 1-((R)-1-(1H-Benzo[d]imidazol-2-yl)-2-(4-methoxyphenyl)ethyl)-3-((1R,2S)-2-hydroxycyclopentyl)urea] | 29 nM
3 | COc1ccc(C[C@@H](NC(=O)NC2CCC(C)CC2)c2nc3ccccc3[nH]2)cc1 (stereo partly drawn) [Example 22, (R)-1-(1-(1H-Benzo[d]imidazol-2-yl)-2-(4-methoxyphenyl)ethyl)-3-(4-methylcyclohexyl)urea] | 85 nM
4 | COc1ccc(C[C@@H](NC(=O)NC2CCCCC2C)c2nc3ccccc3[nH]2)cc1 (stereo partly drawn) [Example 23, 1-((R)-1-(1H-Benzo[d]imidazol-2-yl)-2-(4-methoxyphenyl)ethyl)-3-(2-methylcyclohexyl)urea] | 124 nM
5 | COc1ccc(C[C@@H](NC(=O)NC2CC3CCC2C3)c2nc3ccccc3[nH]2)cc1 (stereo partly drawn) [Example 25, 1-((R)-1-(1H-Benzo[d]imidazol-2-yl)-2-(4-methoxyphenyl)ethyl)-3-(bicyclo[2.2.1]heptan-2-yl)urea] | 9.7 nM
6 | COc1ccc(C[C@@H](NC(=O)NC2Cc3ccccc3C2)c2nc3ccccc3[nH]2)cc1 [Example 26, (R)-1-(1-(1H-Benzo[d]imidazol-2-yl)-2-(4-methoxyphenyl)ethyl)-3-(2,3-dihydro-1H-inden-2-yl)urea] | 109 nM
7 | COc1ccc(C[C@@H](NC(=O)NC2CCCc3ccccc32)c2nc3ccccc3[nH]2)cc1 (stereo partly drawn) [Example 27, 1-((R)-1-(1H-Benzo[d]imidazol-2-yl)-2-(4-methoxyphenyl)ethyl)-3-(1,2,3,4-tetrahydronaphthalen-1-yl)urea] | 26 nM
8 | COc1ccc(C[C@@H](NC(=O)NC2CCc3cccc(OC)c3C2)c2nc3ccccc3[nH]2)cc1 (stereo partly drawn) [Example 30, 1-((R)-1-(1H-Benzo[d]imidazol-2-yl)-2-(4-methoxyphenyl)ethyl)-3-(8-methoxy-1,2,3,4-tetrahydronaphthalen-2-yl)urea] | 26 nM
9 | COc1ccc(C[C@@H](NC(=O)NCc2ccccc2Cn2cncn2)c2nc3ccccc3[nH]2)cc1 [Example 31, (R)-1-(2-((1H-1,2,4-Triazol-1-yl)methyl)benzyl)-3-(1-(1H-benzo[d]imidazol-2-yl)-2-(4-methoxyphenyl)ethyl)urea] | 26 nM
10 | COc1ccc(C[C@@H](NC(=O)NC2CCCC(C)C2)c2nc3ccccc3[nH]2)cc1 (stereo partly drawn) [Example 33, 1-((R)-1-(1H-Benzo[d]imidazol-2-yl)-2-(4-methoxyphenyl)ethyl)-3-(3-methylcyclohexyl)urea] | 130 nM
11 | O=C(N[C@H](Cc1ccc(Br)cc1)c1nc2ccccc2[nH]1)N[C@H]1CC[C@H](O)CC1 [Example 35, 1-((R)-1-(1H-Benzo[d]imidazol-2-yl)-2-(4-bromophenyl)ethyl)-3-(trans-4-hydroxycyclohexyl)urea] | 5.4 nM
12 | COc1ccc(C[C@@H](NC(=O)N[C@H]2CC[C@H](O)CC2)c2nc3ccc(Cl)cc3[nH]2)cc1 [Example 36, 1-((R)-1-(6-Chloro-1H-benzo[d]imidazol-2-yl)-2-(4-methoxyphenyl)ethyl)-3-(trans-4-hydroxycyclohexyl)urea] | 1 nM
13 | COc1ccc(CC(NC(=O)NC2CCCC(O)C2)c2nc3ccccc3[nH]2)cc1 (centres unmarked) [Example 37, 1-(1-(1H-Benzo[d]imidazol-2-yl)-2-(4-methoxyphenyl)ethyl)-3-(3-hydroxycyclohexyl)urea] | 27 nM
14 | COc1ccc(CC(NC(=O)NCc2nc3ccccc3s2)c2nc3ccccc3[nH]2)cc1 (centres unmarked) [Example 38, 1-(1-(1H-Benzo[d]imidazol-2-yl)-2-(4-methoxyphenyl)ethyl)-3-(benzo[d]thiazol-2-ylmethyl)urea] | 198 nM
15 | COc1ccc(CC(NC(=O)NCc2cccc(OC)c2)c2nc3ccccc3[nH]2)cc1 (centres unmarked) [Example 39, 1-(1-(1H-Benzo[d]imidazol-2-yl)-2-(4-methoxyphenyl)ethyl)-3-(3-methoxybenzyl)urea] | 516 nM
16 | COc1ccc(CC(NC(=O)NCCc2ccccc2OC)c2nc3ccccc3[nH]2)cc1 (centres unmarked) [Example 40, 1-(1-(1H-Benzo[d]imidazol-2-yl)-2-(4-methoxyphenyl)ethyl)-3-(2-methoxyphenethyl)urea] | 62 nM
17 | COc1ccc(CC(NC(=O)N[C@H](C)c2cccc(Cl)c2)c2nc3ccccc3[nH]2)cc1 (stereo partly drawn) [Example 41, 1-(1-(1H-Benzo[d]imidazol-2-yl)-2-(4-methoxyphenyl)ethyl)-3-((R)-1-(3-chlorophenyl)ethyl)urea] | 776 nM
18 | COc1ccc(CC(NC(=O)NCCc2c(C)noc2C)c2nc3ccccc3[nH]2)cc1 (centres unmarked) [Example 42, 1-(1-(1H-Benzo[d]imidazol-2-yl)-2-(4-methoxyphenyl)ethyl)-3-(2-(3,5-dimethylisoxazol-4-yl)ethyl)urea] | 814 nM
19 | COc1ccc(CC(NC(=O)NCc2ccc(Cl)cc2)c2nc3ccccc3[nH]2)cc1 (centres unmarked) [Example 43, 1-(1-(1H-Benzo[d]imidazol-2-yl)-2-(4-methoxyphenyl)ethyl)-3-(4-chlorobenzyl)urea] | 611 nM
20 | COc1ccc(CC(NC(=O)NCc2ccccc2OC)c2nc3ccccc3[nH]2)cc1 (centres unmarked) [Example 44] | 466 nM
21 | COc1ccc(CC(NC(=O)NCc2ccccc2Cl)c2nc3ccccc3[nH]2)cc1 (centres unmarked) [Example 45, 1-(1-(1H-Benzo[d]imidazol-2-yl)-2-(4-methoxyphenyl)ethyl)-3-(2-chlorobenzyl)urea] | 760 nM
22 | COc1ccc(CC(NC(=O)NCc2cccc(Cl)c2)c2nc3ccccc3[nH]2)cc1 (centres unmarked) [Example 46, 1-(1-(1H-Benzo[d]imidazol-2-yl)-2-(4-methoxyphenyl)ethyl)-3-(3-chlorobenzyl)urea] | 601 nM
23 | COc1ccc(CC(NC(=O)NCCc2cccc(OC)c2)c2nc3ccccc3[nH]2)cc1 (centres unmarked) [Example 47, 1-(1-(1H-Benzo[d]imidazol-2-yl)-2-(4-methoxyphenyl)ethyl)-3-(3-methoxyphenethyl)urea] | 137 nM

Next, values leading:

Row | EC50 | Structure (SMILES)
24 | 1010 nM | COc1ccc(CC(NC(=O)NCc2csc(C)n2)c2nc3ccccc3[nH]2)cc1 (centres unmarked) [Example 48, 1-(1-(1H-Benzo[d]imidazol-2-yl)-2-(4-methoxyphenyl)ethyl)-3-((2-methylthiazol-4-yl)methyl)urea]
25 | 85 nM | COc1ccc(CC(NC(=O)NC2CCN(C)CC2)c2nc3ccccc3[nH]2)cc1 (centres unmarked) [Example 49, 1-(1-(1H-Benzo[d]imidazol-2-yl)-2-(4-methoxyphenyl)ethyl)-3-(1-methylpiperidin-4-yl)urea]
26 | 136 nM | CCOCc1ccccc1CNC(=O)NC(Cc1ccc(OC)cc1)c1nc2ccccc2[nH]1 (centres unmarked) [Example 50, 1-(1-(1H-Benzo[d]imidazol-2-yl)-2-(4-methoxyphenyl)ethyl)-3-(2-(ethoxymethyl)benzyl)urea]
27 | 990 nM | COc1ccc(CC(NC(=O)NCc2cnc3ccccn23)c2nc3ccccc3[nH]2)cc1 (centres unmarked) [Example 51, 1-(1-(1H-Benzo[d]imidazol-2-yl)-2-(4-methoxyphenyl)ethyl)-3-(imidazo[1,2-a]pyridin-3-ylmethyl)urea]
28 | 221 nM | COc1ccc(CC(NC(=O)NCC2CCCC2)c2nc3ccccc3[nH]2)cc1 (centres unmarked) [Example 52, 1-(1-(1H-Benzo[d]imidazol-2-yl)-2-(4-methoxyphenyl)ethyl)-3-(cyclopentylmethyl)urea]
29 | 539 nM | COc1ccc(CCNC(=O)NC(Cc2ccc(OC)cc2)c2nc3ccccc3[nH]2)cc1 (centres unmarked) [Example 53, 1-(1-(1H-Benzo[d]imidazol-2-yl)-2-(4-methoxyphenyl)ethyl)-3-(4-methoxyphenethyl)urea]
30 | 987 nM | COc1ccc(CCNC(=O)N[C@H](Cc2ccc(OC)cc2)c2nc3ccccc3[nH]2)cc1 [Example 54, (R)-1-(1-(1H-Benzo[d]imidazol-2-yl)-2-(4-methoxyphenyl)ethyl)-3-(4-methoxyphenethyl)urea]
31 | 137 nM | COc1ccc(C[C@@H](NC(=O)NCCc2ccc(F)cc2)c2nc3ccccc3[nH]2)cc1 [Example 55, (R)-1-(1-(1H-Benzo[d]imidazol-2-yl)-2-(4-methoxyphenyl)ethyl)-3-(4-fluorophenethyl)urea hydrochloride]
32 | 109 nM | COc1ccc(C[C@@H](NC(=O)NCCc2ccccc2Cl)c2nc3ccccc3[nH]2)cc1 [Example 56, (R)-1-(1-(1H-Benzo[d]imidazol-2-yl)-2-(4-methoxyphenyl)ethyl)-3-(2-chlorophenethyl)urea hydrochloride]
33 | 82 nM | COc1ccc(C[C@@H](NC(=O)NCC2CCCO2)c2nc3ccccc3[nH]2)cc1 (stereo partly drawn) [Example 57, 1-((R)-1-(1H-Benzo[d]imidazol-2-yl)-2-(4-methoxyphenyl)ethyl)-3-((tetrahydrofuran-2-yl)methyl)urea hydrochloride]
34 | 23 nM | COc1ccc(C[C@@H](NC(=O)NCc2ccccc2COC(C)C)c2nc3ccccc3[nH]2)cc1 [Example 58, (R)-1-(1-(1H-Benzo[d]imidazol-2-yl)-2-(4-methoxyphenyl)ethyl)-3-(2-(isopropoxymethyl)benzyl)urea]
35 | 316 nM | COCCNC(=O)N[C@H](Cc1ccc(OC)cc1)c1nc2ccccc2[nH]1 [Example 59, (R)-1-(1-(1H-Benzo[d]imidazol-2-yl)-2-(4-methoxyphenyl)ethyl)-3-(2-methoxyethyl)urea hydrochloride]
